Values after ≈ are worked out from the molar mass of the structure shown.
Assays:
Format in all cases: functional
Streptococcus pneumoniae [1] = test: Antimicrobial activity against quinolone-susceptible Streptococcus pneumoniae by agar dilution method
Streptococcus pneumoniae [2] = test: Antimicrobial activity against penicillin-susceptible Streptococcus pneumoniae by agar dilution method
Streptococcus pneumoniae [3] = test: Antimicrobial activity against trimethoprim-sulfamethoxazole-resistant Streptococcus pneumoniae by agar dilution method
Streptococcus pneumoniae [4] = test: Antimicrobial activity against macrolide-resistant Streptococcus pneumoniae by agar dilution method
Streptococcus pneumoniae [5] = test: Antimicrobial activity against penicillin-resistant Streptococcus pneumoniae by agar dilution method
[6] = system: Streptococcus sp. 'group A'; test: Antimicrobial activity against macrolide-susceptible Streptococcus sp. 'group A' by agar dilution method
Streptococcus pneumoniae [7] = test: Antimicrobial activity against quinolone-resistant Streptococcus pneumoniae by agar dilution method
Streptococcus pneumoniae [8] = test: Antimicrobial activity against trimethoprim-sulfamethoxazole-susceptible Streptococcus pneumoniae by agar dilution method
Streptococcus pneumoniae [9] = test: Antimicrobial activity against penicillin-intermediate Streptococcus pneumoniae by agar dilution method
Streptococcus pneumoniae [10] = test: Antimicrobial activity against Streptococcus pneumoniae assessed as time required to show antibiotic effect
[11] = system: Streptococcus sp. 'group A'; test: Antimicrobial activity against macrolide-resistant Streptococcus sp. 'group A' by agar dilution method
Streptococcus pneumoniae [12] = test: Antimicrobial activity against macrolide-susceptible Streptococcus pneumoniae by agar dilution method
[13] = system: Streptococcus sp. 'group A'; test: Antimicrobial activity against macrolide-susceptible Streptococcus sp. 'group A' by agar dilution method in presence of […] clavulanic acid
Streptococcus pneumoniae [14] = test: Antimicrobial activity against trimethoprim-sulfamethoxazole-resistant Streptococcus pneumoniae by agar dilution method in presence of […] clavulanic acid
Streptococcus pneumoniae [15] = test: Antimicrobial activity against penicillin-resistant Streptococcus pneumoniae by agar dilution method in presence of […] clavulanic acid
Streptococcus pneumoniae [16] = test: Antimicrobial activity against macrolide-susceptible Streptococcus pneumoniae by agar dilution method in presence of […] clavulanic acid
Streptococcus pneumoniae [17] = test: Antimicrobial activity against quinolone-susceptible Streptococcus pneumoniae by agar dilution method in presence of […] clavulanic acid
Streptococcus pneumoniae [18] = test: Antimicrobial activity against quinolone-resistant Streptococcus pneumoniae by agar dilution method in presence of […] clavulanic acid
Streptococcus pneumoniae [19] = test: Antimicrobial activity against penicillin-susceptible Streptococcus pneumoniae by agar dilution method in presence of […] clavulanic acid
Streptococcus pneumoniae [20] = test: Antimicrobial activity against penicillin-intermediate Streptococcus pneumoniae by agar dilution method in presence of […] clavulanic acid
Streptococcus pneumoniae [21] = test: Antimicrobial activity against trimethoprim-sulfamethoxazole-susceptible Streptococcus pneumoniae by agar dilution method in presence of […] clavulanic acid
Streptococcus pneumoniae [22] = test: Antimicrobial activity against macrolide-resistant Streptococcus pneumoniae by agar dilution method in presence of […] clavulanic acid

## COc1cc(Cc2cnc(N)nc2N)c2cc(Cc3c(C(=O)N(C)C)[nH]c4ccc(Cl)cc34)oc2c1OC
Streptococcus pneumoniae [1]
  MIC50: 0.12 µg/mL (≈ 0.224 µM)
  MIC90: 0.5 µg/mL (≈ 0.935 µM)
Streptococcus pneumoniae [2]
  MIC50: 0.06 µg/mL (≈ 0.112 µM)
  MIC90: 0.25 µg/mL (≈ 0.467 µM)
Streptococcus pneumoniae [3]
  MIC50: 0.25 µg/mL (≈ 0.467 µM)
  MIC90: 0.5 µg/mL (≈ 0.935 µM)
Streptococcus pneumoniae [4]
  MIC50: 0.25 µg/mL (≈ 0.467 µM)
  MIC90: 0.5 µg/mL (≈ 0.935 µM)
Streptococcus pneumoniae [5]
  MIC50: 0.25 µg/mL (≈ 0.467 µM)
  MIC90: 1 µg/mL (≈ 1.87 µM)
[6]
  MIC50: 0.06 µg/mL (≈ 0.112 µM)
  MIC90: 0.06 µg/mL (≈ 0.112 µM)
Streptococcus pneumoniae [7]
  MIC50: 0.25 µg/mL (≈ 0.467 µM)
  MIC90: 1 µg/mL (≈ 1.87 µM)
Streptococcus pneumoniae [8]
  MIC50: 0.06 µg/mL (≈ 0.112 µM)
  MIC90: 0.12 µg/mL (≈ 0.224 µM)
Streptococcus pneumoniae [9]
  MIC50: 0.25 µg/mL (≈ 0.467 µM)
  MIC90: 0.5 µg/mL (≈ 0.935 µM)
Streptococcus pneumoniae [10]
  Time: >=1.1 hr
[11]
  MIC50: 0.016 µg/mL (≈ 0.0299 µM)
  MIC90: 0.03 µg/mL (≈ 0.0561 µM)
Streptococcus pneumoniae [12]
  MIC50: 0.12 µg/mL (≈ 0.224 µM)
  MIC90: 0.5 µg/mL (≈ 0.935 µM)

## CC1(C)S[C@@H]2[C@H](NC(=O)[C@H](N)c3ccc(O)cc3)C(=O)N2[C@H]1C(=O)O [AMOXICILLIN]
[13]
  MIC: ≤ 0.016 µg/mL
  MIC50: ≤ 0.016 µg/mL
  MIC90: ≤ 0.016 µg/mL
Streptococcus pneumoniae [14]
  MIC50: 0.5 µg/mL
  MIC90: 4 µg/mL
Streptococcus pneumoniae [15]
  MIC50: 2 µg/mL
  MIC90: 4 µg/mL
Streptococcus pneumoniae [16]
  MIC50: 0.06 µg/mL
  MIC90: 1 µg/mL
Streptococcus pneumoniae [17]
  MIC50: 0.12 µg/mL
  MIC90: 2 µg/mL
Streptococcus pneumoniae [18]
  MIC50: 0.5 µg/mL
  MIC90: 2 µg/mL
Streptococcus pneumoniae [19]
  MIC: ≤ 0.016 µg/mL
  MIC50: ≤ 0.016 µg/mL
  MIC90: 0.03 µg/mL
Streptococcus pneumoniae [20]
  MIC50: 0.12 µg/mL
  MIC90: 1 µg/mL
Streptococcus pneumoniae [21]
  MIC50: 0.03 µg/mL
  MIC90: 0.12 µg/mL
Streptococcus pneumoniae [22]
  MIC50: 0.12 µg/mL
  MIC90: 4 µg/mL

## CC[C@H]1OC(=O)[C@H](C)[C@@H](O[C@H]2C[C@@](C)(OC)[C@@H](O)[C@H](C)O2)[C@H](C)[C@@H](O[C@@H]2O[C@H](C)C[C@H](N(C)C)[C@H]2O)[C@](C)(O)C[C@@H](C)CN(C)[C@H](C)[C@@H](O)[C@]1(C)O [AZITHROMYCIN]
Streptococcus pneumoniae [1]
  MIC50: 4 µg/mL (≈ 5.34 µM)
  MIC90: > 64 µg/mL
Streptococcus pneumoniae [2]
  MIC50: 0.12 µg/mL (≈ 0.16 µM)
  MIC90: > 64 µg/mL
Streptococcus pneumoniae [3]
  MIC50: 8 µg/mL (≈ 10.7 µM)
Streptococcus pneumoniae [4]
  MIC50: > 64 µg/mL
Streptococcus pneumoniae [5]
  MIC50: 8 µg/mL (≈ 10.7 µM)
[6]
  MIC50: 0.12 µg/mL (≈ 0.16 µM)
  MIC90: 0.25 µg/mL (≈ 0.334 µM)
Streptococcus pneumoniae [7]
  MIC50: 0.12 µg/mL (≈ 0.16 µM)
Streptococcus pneumoniae [8]
  MIC50: 0.12 µg/mL (≈ 0.16 µM)
  MIC90: > 64 µg/mL
Streptococcus pneumoniae [9]
  MIC50: 0.12 µg/mL (≈ 0.16 µM)
  MIC90: > 64 µg/mL
[11]
  MIC50: > 64 µg/mL
  MIC90: > 64 µg/mL
Streptococcus pneumoniae [12]
  MIC50: 0.12 µg/mL (≈ 0.16 µM)
  MIC90: 0.12 µg/mL (≈ 0.16 µM)

## CO/N=C(\C(=O)N[C@@H]1C(=O)N2C(C(=O)O)=C(COC(N)=O)CS[C@H]12)c1ccco1 [CEFUROXIME]
Streptococcus pneumoniae [1]
  MIC50: 0.25 µg/mL (≈ 0.589 µM)
  MIC90: 4 µg/mL (≈ 9.43 µM)
Streptococcus pneumoniae [2]
  MIC50: 0.03 µg/mL (≈ 0.0707 µM)
  MIC90: 0.12 µg/mL (≈ 0.283 µM)
Streptococcus pneumoniae [3]
  MIC50: 2 µg/mL (≈ 4.71 µM)
  MIC90: 8 µg/mL (≈ 18.9 µM)
Streptococcus pneumoniae [4]
  MIC50: 0.5 µg/mL (≈ 1.18 µM)
  MIC90: 8 µg/mL (≈ 18.9 µM)
Streptococcus pneumoniae [5]
  MIC50: 4 µg/mL (≈ 9.43 µM)
  MIC90: 16 µg/mL (≈ 37.7 µM)
[6]
  MIC: 0.016 µg/mL (≈ 0.0377 µM)
  MIC50: 0.016 µg/mL (≈ 0.0377 µM)
  MIC90: 0.016 µg/mL (≈ 0.0377 µM)
Streptococcus pneumoniae [7]
  MIC50: 2 µg/mL (≈ 4.71 µM)
  MIC90: 8 µg/mL (≈ 18.9 µM)
Streptococcus pneumoniae [8]
  MIC50: 0.03 µg/mL (≈ 0.0707 µM)
  MIC90: 0.5 µg/mL (≈ 1.18 µM)
Streptococcus pneumoniae [9]
  MIC50: 0.25 µg/mL (≈ 0.589 µM)
  MIC90: 4 µg/mL (≈ 9.43 µM)
[11]
  MIC: 0.016 µg/mL (≈ 0.0377 µM)
  MIC50: 0.016 µg/mL (≈ 0.0377 µM)
  MIC90: 0.03 µg/mL (≈ 0.0707 µM)
Streptococcus pneumoniae [12]
  MIC50: 0.25 µg/mL (≈ 0.589 µM)
  MIC90: 4 µg/mL (≈ 9.43 µM)

## O=C(O)c1cn(C2CC2)c2cc(N3CCNCC3)c(F)cc2c1=O [CIPROFLOXACIN]
Streptococcus pneumoniae [1]
  MIC50: 1 µg/mL (≈ 3.02 µM)
  MIC90: 2 µg/mL (≈ 6.04 µM)
Streptococcus pneumoniae [3]
  MIC50: 1 µg/mL (≈ 3.02 µM)
  MIC90: 4 µg/mL (≈ 12.1 µM)
Streptococcus pneumoniae [4]
  MIC50: 1 µg/mL (≈ 3.02 µM)
  MIC90: 4 µg/mL (≈ 12.1 µM)
[6]
  MIC: 0.5 µg/mL (≈ 1.51 µM)
  MIC50: 0.5 µg/mL (≈ 1.51 µM)
  MIC90: 1 µg/mL (≈ 3.02 µM)
Streptococcus pneumoniae [7]
  MIC50: 32 µg/mL (≈ 96.6 µM)
  MIC90: > 32 µg/mL
Streptococcus pneumoniae [9]
  MIC50: 1 µg/mL (≈ 3.02 µM)
  MIC90: 4 µg/mL (≈ 12.1 µM)
[11]
  MIC50: 0.5 µg/mL (≈ 1.51 µM)
  MIC90: 2 µg/mL (≈ 6.04 µM)

## C[C@H]1COc2c(N3CCN(C)CC3)c(F)cc3c(=O)c(C(=O)O)cn1c23.C[C@H]1COc2c(N3CCN(C)CC3)c(F)cc3c(=O)c(C(=O)O)cn1c23.O [LEVOFLOXACIN]
Streptococcus pneumoniae [1]
  MIC50: 1 µg/mL
  MIC90: 1 µg/mL
Streptococcus pneumoniae [2]
  MIC50: 1 µg/mL
  MIC90: 8 µg/mL
Streptococcus pneumoniae [3]
  MIC50: 1 µg/mL
  MIC90: 2 µg/mL
Streptococcus pneumoniae [4]
  MIC50: 1 µg/mL
  MIC90: 2 µg/mL
Streptococcus pneumoniae [5]
  MIC50: 1 µg/mL
  MIC90: 4 µg/mL
[6]
  MIC: 0.5 µg/mL
  MIC50: 0.5 µg/mL
  MIC90: 2 µg/mL
Streptococcus pneumoniae [7]
  MIC50: 16 µg/mL
  MIC90: 16 µg/mL
Streptococcus pneumoniae [8]
  MIC50: 1 µg/mL
  MIC90: 2 µg/mL
Streptococcus pneumoniae [9]
  MIC50: 1 µg/mL
  MIC90: 2 µg/mL
[11]
  MIC50: 0.5 µg/mL
  MIC90: 1 µg/mL
Streptococcus pneumoniae [12]
  MIC50: 1 µg/mL
  MIC90: 8 µg/mL

## CC1(C)S[C@@H]2[C@H](NC(=O)Cc3ccccc3)C(=O)N2[C@H]1C(=O)O [PENICILLIN G]
Streptococcus pneumoniae [1]
  MIC: 0.12 µg/mL (≈ 0.359 µM)
  MIC50: 0.12 µg/mL (≈ 0.359 µM)
  MIC90: 2 µg/mL (≈ 5.98 µM)
Streptococcus pneumoniae [2]
  MIC50: 0.016 µg/mL (≈ 0.0478 µM)
  MIC90: 0.06 µg/mL (≈ 0.179 µM)
Streptococcus pneumoniae [3]
  MIC50: 1 µg/mL (≈ 2.99 µM)
  MIC90: 4 µg/mL (≈ 12 µM)
Streptococcus pneumoniae [4]
  MIC50: 0.25 µg/mL (≈ 0.748 µM)
  MIC90: 4 µg/mL (≈ 12 µM)
Streptococcus pneumoniae [5]
  MIC: 2 µg/mL (≈ 5.98 µM)
  MIC50: 2 µg/mL (≈ 5.98 µM)
  MIC90: 4 µg/mL (≈ 12 µM)
Streptococcus pneumoniae [7]
  MIC50: 0.5 µg/mL (≈ 1.5 µM)
  MIC90: 2 µg/mL (≈ 5.98 µM)
Streptococcus pneumoniae [8]
  MIC50: 0.03 µg/mL (≈ 0.0897 µM)
  MIC90: 0.25 µg/mL (≈ 0.748 µM)
Streptococcus pneumoniae [9]
  MIC50: 0.25 µg/mL (≈ 0.748 µM)
  MIC90: 1 µg/mL (≈ 2.99 µM)
Streptococcus pneumoniae [12]
  MIC50: 0.12 µg/mL (≈ 0.359 µM)
  MIC90: 2 µg/mL (≈ 5.98 µM)

— ChEMBL document CHEMBL1255353, “Antistreptococcal activity of AR-709 compared to that of other agents” (2008)
